Reference: PubChem BioAssay AID248 (DTP/NCI, 2004)
Where “and” joins values, the source holds several entries; their conditions need not be identical. Equal values may be shown once. Inconclusive results and toxic doses are left out.

System: L1210 leukemia ip in BDF1 mice, survival T/C
Experiment: NCI In Vivo Anticancer Drug Screen. Data for tumor model L1210 Leukemia (intraperitoneal) in B6D2F1 (BDF1) mice
Settings: endpoint: mean survival time, higher = longer survival
Outline: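 Transplantable tumor model; survival measured in treated vs vehicle control mice. Value = treated/control.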

[1] = dose: 50.0 mg/kg/injection, schedule: Q04DX003 (ip), vehicle: Klucel (hydroxypropylcellulose) (HPC)
[2] = dose: 100.0 mg/kg/injection, schedule: Q04DX003 (ip), vehicle: Klucel (hydroxypropylcellulose) (HPC)
[3] = dose: 100.0 mg/kg/injection, schedule: Q04DX003 (ip), vehicle: saline
[4] = dose: 200.0 mg/kg/injection, schedule: Q04DX003 (ip), vehicle: saline
[5] = dose: 50.0 mg/kg/injection, schedule: Q01DX001 (ip), vehicle: saline
[6] = dose: 100.0 mg/kg/injection, schedule: Q01DX001 (ip), vehicle: saline
[7] = dose: 200.0 mg/kg/injection, schedule: Q01DX001 (ip), vehicle: saline
[8] = dose: 100.0 mg/kg/injection, schedule: Q01DX009 (ip), vehicle: saline with Tween-80
[9] = dose: 200.0 mg/kg/injection, schedule: Q01DX009 (ip), vehicle: saline with Tween-80
[10] = dose: 50.0 mg/kg/injection, schedule: Q01DX009 (ip), vehicle: saline
[11] = dose: 100.0 mg/kg/injection, schedule: Q01DX009 (ip), vehicle: saline
[12] = dose: 125.0 mg/kg/injection, schedule: Q01DX Z (ip), vehicle: saline
[13] = dose: 400.0 mg/kg/injection, schedule: Q01DX001 (ip), vehicle: saline

Q: Which T/C (dose: 3.12 mg/kg/injection, schedule: Q01DX009 (ip), vehicle: saline with Tween-80) does the source give for `O=S1(=O)C=C(c2ccccc2)C(c2ccccc2)=C1` here?
A: 98 % of control

Q: What about the T/C (dose: 6.25 mg/kg/injection, schedule: Q01DX009 (ip), vehicle: saline with Tween-80) of the same compound?
A: 106 % of control

Q: And the T/C (dose: 12.5 mg/kg/injection, schedule: Q01DX009 (ip), vehicle: saline with Tween-80)?
A: 101 % of control

Q: What about the T/C (dose: 25.0 mg/kg/injection, schedule: Q01DX009 (ip), vehicle: saline with Tween-80) of the same compound?
A: 101 % of control and 108 % of control

Q: And the T/C (dose: 25.0 mg/kg/injection, schedule: Q04DX003 (ip), vehicle: Klucel (hydroxypropylcellulose) (HPC))?
A: 95 % of control

Q: What about the T/C (dose: 50.0 mg/kg/injection, schedule: Q01DX009 (ip), vehicle: saline with Tween-80) of the same compound?
A: 95 % of control

Q: And the T/C [1]?
A: 102 % of control

Q: And the T/C [2]?
A: 118 % of control and 91 % of control

Q: With `Br/C=C/C1CCCCC1` as the compound, how does the T/C (dose: 100.0 mg/kg/injection, schedule: Q01DX009 (ip), vehicle: acetone) read?
A: 104 % of control

Q: And the T/C [3]?
A: 105 % of control

Q: And the T/C (dose: 200.0 mg/kg/injection, schedule: Q01DX009 (ip), vehicle: acetone)?
A: 123 % of control

Q: What about the T/C [4] of the same compound?
A: 92 % of control

Q: What about the T/C (dose: 400.0 mg/kg/injection, schedule: Q01DX009 (ip), vehicle: acetone) of the same compound?
A: 107 % of control

Q: And the T/C (dose: 400.0 mg/kg/injection, schedule: Q04DX003 (ip), vehicle: saline)?
A: 92 % of control

Q: Which results are given for `CC(=O)OCC1OC(n2cnc3c(=S)nc(N)[nH]c32)C(OC(C)=O)C1OC(C)=O` (centres undefined)?
A: T/C (dose: 1.6 mg/kg/injection, schedule: Q01DX Z (ip), vehicle: carboxymethylcellulose (CMC)): 106 % of control; T/C (dose: 5.0 mg/kg/injection, schedule: Q01DX Z (ip), vehicle: carboxymethylcellulose (CMC)): 162 % of control; T/C (dose: 6.25 mg/kg/injection, schedule: Q01DX Z (oral), vehicle: other): 94 % of control; T/C (dose: 7.5 mg/kg/injection, schedule: Q01DX Z (ip), vehicle: carboxymethylcellulose (CMC)): 162 % of control; T/C (dose: 11.2 mg/kg/injection, schedule: Q01DX Z (ip), vehicle: carboxymethylcellulose (CMC)): 176 % of control; T/C (dose: 12.5 mg/kg/injection, schedule: Q01DX Z (oral), vehicle: other): 106 % of control; T/C (dose: 25.0 mg/kg/injection, schedule: Q01DX Z (oral), vehicle: other): 105 % of control; T/C (dose: 44.0 mg/kg/injection, schedule: Q01DX Z (ip), vehicle: carboxymethylcellulose (CMC)): 86 % of control; T/C [5]: 100 % of control; T/C (dose: 50.0 mg/kg/injection, schedule: Q01DX Z (oral), vehicle: other): 122 % of control; T/C [6]: 123 % of control; T/C (dose: 150.0 mg/kg/injection, schedule: Q01DX015 (oral), vehicle: other): 120 % of control; T/C [7]: 103 % of control; T/C (dose: 200.0 mg/kg/injection, schedule: Q01DX015 (oral), vehicle: other): 97 % of control; T/C (dose: 250.0 mg/kg/injection, schedule: Q01DX015 (oral), vehicle: other): 94 % of control

Q: How did the T/C (dose: 12.5 mg/kg/injection, schedule: Q01DX009 (ip), vehicle: DMSO) turn out when `C=C(Cl)c1c(C)cc(C)c(CC#N)c1C` was run?
A: 92 % of control

Q: And the T/C (dose: 12.5 mg/kg/injection, schedule: Q04DX003 (ip), vehicle: DMSO)?
A: 87 % of control

Q: What about the T/C (dose: 25.0 mg/kg/injection, schedule: Q01DX009 (ip), vehicle: DMSO) of the same compound?
A: 92 % of control

Q: What about the T/C (dose: 25.0 mg/kg/injection, schedule: Q04DX003 (ip), vehicle: DMSO) of the same compound?
A: 93 % of control

Q: What about the T/C (dose: 50.0 mg/kg/injection, schedule: Q04DX003 (ip), vehicle: DMSO) of the same compound?
A: 93 % of control

Q: What about the T/C (dose: 200.0 mg/kg/injection, schedule: Q04DX003 (ip), vehicle: DMSO) of the same compound?
A: 87 % of control

Q: Which results are given for `CC(=O)OC1CC2C=CC1C2` (centres undefined)?
A: T/C [8]: 93 % of control; T/C [9]: 91 % of control; T/C (dose: 400.0 mg/kg/injection, schedule: Q01DX009 (ip), vehicle: saline with Tween-80): 86 % of control

Q: What does the source list for `Cc1[nH]c(=S)sc1C`?
A: T/C (dose: 50.0 mg/kg/injection, schedule: Q01DX001 (ip), vehicle: carboxymethylcellulose (CMC)): 100 % of control; T/C [10]: 97 % of control; T/C (dose: 50.0 mg/kg/injection, schedule: Q04DX003 (ip), vehicle: saline): 92 % of control; T/C (dose: 100.0 mg/kg/injection, schedule: Q01DX001 (ip), vehicle: carboxymethylcellulose (CMC)): 88 % of control; T/C [11]: 97 % of control; T/C [3]: 101 % of control; T/C [4]: 88 % of control

Q: With `ClCC1COC(CCl)O1` (centres undefined) as the compound, how does the T/C (dose: 55.0 mg/kg/injection, schedule: Q01DX Z (ip), vehicle: saline) read?
A: 101 % of control

Q: What about the T/C (dose: 83.0 mg/kg/injection, schedule: Q01DX Z (ip), vehicle: saline) of the same compound?
A: 95 % of control

Q: And the T/C [12]?
A: 97 % of control

Q: How did the T/C (dose: 100.0 mg/kg/injection, schedule: Q04DX002 (ip), vehicle: saline) turn out when `COc1ccc(OC(C)OCCOCCOC(C)=O)cc1` (centres undefined) was run?
A: 104 % of control

Q: And the T/C (dose: 200.0 mg/kg/injection, schedule: Q04DX002 (ip), vehicle: saline)?
A: 93 % of control

Q: What about the T/C (dose: 400.0 mg/kg/injection, schedule: Q04DX002 (ip), vehicle: saline) of the same compound?
A: 107 % of control

Q: Which T/C [6] does the source give for `Cc1ccc(C)c2c3c(oc12)CCCC3` here?
A: 91 % of control

Q: What about the T/C [7] of the same compound?
A: 94 % of control

Q: What about the T/C [13] of the same compound?
A: 105 % of control

Q: `CCCCCCCCCCCCCC(CCC)CCC` was tested. Which T/C [6] did it give?
A: 94 % of control

Q: And the T/C [7]?
A: 96 % of control

Q: What about the T/C [13] of the same compound?
A: 94 % of control

Q: How did the T/C (dose: 75.0 mg/kg/injection, schedule: Q01DX001 (ip), vehicle: carboxymethylcellulose (CMC)) turn out when `O=C(O)c1cccc(F)c1CBr` was run?
A: 104 % of control

Q: Which results are given for `O=P(NCCCO)(Oc1ccccc1)N(CCCl)CCCl` (centres undefined)?
A: T/C [12]: 95 % of control; T/C (dose: 250.0 mg/kg/injection, schedule: Q01DX Z (ip), vehicle: saline): 102 % of control; T/C (dose: 500.0 mg/kg/injection, schedule: Q01DX Z (ip), vehicle: saline): 102 % of control

Q: Which T/C [10] does the source give for `NCCOCCOCCN` here?
A: 108 % of control

Q: And the T/C [11]?
A: 87 % of control

Q: For `O=C(CS)OCCOC(=O)CS`, which T/C [1] is on record?
A: 105 % of control

Q: What about the T/C (dose: 100.0 mg/kg/injection, schedule: Q01DX009 (ip), vehicle: Klucel (hydroxypropylcellulose) (HPC)) of the same compound?
A: 92 % of control

Q: And the T/C [2]?
A: 101 % of control

Q: What about the T/C (dose: 200.0 mg/kg/injection, schedule: Q01DX009 (ip), vehicle: Klucel (hydroxypropylcellulose) (HPC)) of the same compound?
A: 87 % of control

Q: And the T/C (dose: 200.0 mg/kg/injection, schedule: Q04DX003 (ip), vehicle: Klucel (hydroxypropylcellulose) (HPC))?
A: 106 % of control

Q: And the T/C (dose: 400.0 mg/kg/injection, schedule: Q04DX003 (ip), vehicle: Klucel (hydroxypropylcellulose) (HPC))?
A: 86 % of control

Q: Which results are given for `C1COC(CNCC2CCCO2)C1` (centres undefined)?
A: T/C [5]: 109 % of control; T/C [6]: 101 % of control; T/C [7]: 103 % of control

Q: Which results are given for `CS(=O)(=O)NC1=NCCN1[N+](=O)[O-]`?
A: T/C (dose: 10.0 mg/kg/injection, schedule: Q01DX009 (ip), vehicle: Klucel (hydroxypropylcellulose) (HPC)): 88 % of control; T/C (dose: 20.0 mg/kg/injection, schedule: Q01DX009 (ip), vehicle: Klucel (hydroxypropylcellulose) (HPC)): 91 % of control; T/C (dose: 20.0 mg/kg/injection, schedule: Q04DX003 (ip), vehicle: Klucel (hydroxypropylcellulose) (HPC)): 98 % of control; T/C (dose: 40.0 mg/kg/injection, schedule: Q01DX009 (ip), vehicle: Klucel (hydroxypropylcellulose) (HPC)): 98 % of control; T/C (dose: 40.0 mg/kg/injection, schedule: Q04DX003 (ip), vehicle: Klucel (hydroxypropylcellulose) (HPC)): 101 % of control

Q: For `NCC1CCCO1` (centres undefined), which T/C (dose: 25.0 mg/kg/injection, schedule: Q01DX009 (ip), vehicle: saline) is on record?
A: 98 % of control

Q: And the T/C [10]?
A: 95 % of control

Q: And the T/C [11]?
A: 101 % of control

Q: For `CCn1c(C)nc2cc(Cl)c([N+](=O)[O-])cc21`, which T/C [6] is on record?
A: 91 % of control

Q: What about the T/C (dose: 100.0 mg/kg/injection, schedule: Q04DX003 (ip), vehicle: acetone) of the same compound?
A: 93 % of control

Q: And the T/C [7]?
A: 110 % of control

Q: And the T/C (dose: 200.0 mg/kg/injection, schedule: Q04DX003 (ip), vehicle: acetone)?
A: 93 % of control

Q: What about the T/C [13] of the same compound?
A: 96 % of control

Q: What about the T/C (dose: 400.0 mg/kg/injection, schedule: Q04DX003 (ip), vehicle: acetone) of the same compound?
A: 96 % of control

Q: `CCCCCC#CC(=O)OCC` was tested. Which T/C [8] did it give?
A: 100 % of control

Q: What about the T/C [9] of the same compound?
A: 89 % of control

Q: How did the T/C [11] turn out when `O=c1[nH]cnc2c1ncn2C1OC(CF)C(O)C1O` (centres undefined) was run?
A: 101 % of control

Q: What about the T/C (dose: 100.0 mg/kg/injection, schedule: Q04DX003 (ip), vehicle: other) of the same compound?
A: 112 % of control

Q: What about the T/C (dose: 200.0 mg/kg/injection, schedule: Q01DX009 (ip), vehicle: saline) of the same compound?
A: 101 % of control

Q: And the T/C (dose: 200.0 mg/kg/injection, schedule: Q04DX003 (ip), vehicle: other)?
A: 103 % of control

Q: What about the T/C (dose: 400.0 mg/kg/injection, schedule: Q01DX009 (ip), vehicle: saline) of the same compound?
A: 101 % of control

Q: What about the T/C (dose: 400.0 mg/kg/injection, schedule: Q04DX003 (ip), vehicle: other) of the same compound?
A: 98 % of control
